Reference: patent EP0049683A2, “Imidazo-rifamycines, process for their preparation, pharmaceutical preparations containing them and their use” (CIBA-GEIGY AG, priority 1980, dated 1982)
Values after ≈ are worked out from the molar mass of the structure shown.

Key:
Type in all cases: cell-based
[1] = tested on: Enterobacteriaceae, z.B. Escherichia coli, Pseudomonas aeruginosa und Proteus morganii; assay: In vitro antibacterial activity against gram-negative rods; settings: within the stated concentration range, 1 bis 64 y/ml
Source text: (§1) Die neuen erfindungsgemässen Verbindungen der Formel I zeichnen sich vor allem durch ihre wertvollen pharmakologischen Eigenschaften aus: so besitzen sie gemäss den Resultaten in vitro antibiotische, insbesondere antibakterielle Eigenschaften, wie z.B. einerseits gegen grammpositive Kokken, wie Staphylococcus aureus, (im getesteten Konzentrationsbereich 0,005 bis 128 y/ml),andererseits gegen grammnegative Stäbchenbakterien, wie Enterobacteriaceae, z.B. Escherichia coli, Pseudomonas aeruginosa und Proteus morganii (im getesteten Konzentrationsbereich von 1 bis 64 y/ml), sowie gegen Mycobacterium tuberculosis (im getesteten Konzentrationsbereich von 0,48 bis 1,9 y/ml). […] (Für die Testresultate siehe auch Tabelle -1.)
(§2) Auch die neuen erfindungsgemässen Verbindungen der Formeln V und VI zeichnen sich durch analoge wertvolle pharmakologische Eigenschaften aus, d.h. sie besitzen gemäss den Resultaten in vitro antibiotische, insbesondere antibakterielle Eigenschaften, die sich bezüglich des Anwendungsbereichs sowie der getesteten effektiven Konzentrationen den Verbindungen der Formel I praktisch gleichen. […] (Für die Testresultate siehe auch Tabelle 2.)

Staphylococcus aureus = assay: In vitro antibacterial activity against gram-positive cocci; settings: at (at or below) the lowest limit of the tested concentration range, 0,005 y/ml
Source text: as §1, §2

Escherichia coli 205 = assay: Agar dilution MIC in DST agar (Ericsson and Sherris); settings: for MIC: Escherichia coli, 205, in vitro, read-out: MIC Esch. 205
Procedure, shortened: (§3)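 Read-out: minimal growth-inhibiting concentration (MIC), µg/ml. Compounds tested in vitro by agar dilution; endpoint is lowest level that still prevents visible growth.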

Proteus morganii 1518 = assay: as above; settings: for MIC: Morganella morganii, 1518, in vitro, read-out: MIC Prot. 1518
Procedure, shortened: as §3

[2] = tested on: Pseudomonas aeruginosa K 799/61; assay: as above; settings: for MIC: Pseudomonas aeruginosa, K799/61, read-out: MIC Pseu. 799
Procedure, shortened: as §3

[3] = tested on: Salmonella Typhimurium 277; assay: as above; settings: in vitro; for MIC: Salmonella enterica, TYPHIMURIUM, read-out: MIC Salm. 277
Procedure, shortened: as §3

Proteus morganii 2359 = assay: as above; settings: for MIC: Morganella morganii, 2359, in vitro, read-out: MIC Prot. 2359
Procedure, shortened: as §3

[4] = tested on: Staphylococcus aureus 2999; assay: as above; settings: for MIC: Staphylococcus aureus, 2999, in vitro, read-out: MIC Staph. 2999
Procedure, shortened: as §3

[5] = tested on: Staphylococcus aureus 10B; assay: as above; settings: in vitro; for MIC: Staphylococcus aureus, 10B, read-out: MIC Staph. 10B
Procedure, shortened: as §3

Escherichia coli 2018 = assay: as above; settings: for MIC: Escherichia coli, 2018, in vitro, read-out: MIC Esch. 2018
Procedure, shortened: as §3

[6] = tested on: Mycobacterium tuberculosis; assay: as above; settings: in vitro; for MIC: Mycobacterium tuberculosis, read-out: MIC Myc. tub.

Row | Molecule | Hemmung der Enterobacterien [1] | Hemmwirkung auf Staphylococcus aureus (Staphylococcus aureus) | MIC (Escherichia coli 205) [µg/mL] | MIC (Proteus morganii 1518) [µg/mL] | MIC [2] [µg/mL] | MIC [3] [µg/mL] | MIC (Proteus morganii 2359) [µg/mL] | MIC [4] [µg/mL] | MIC [5] [µg/mL] | MIC (Escherichia coli 2018) [µg/mL] | MIC [6] [µg/mL] | MIC Esch. 205 (Escherichia coli 205; in vitro) [µg/mL] | MIC Prot. 1518 (Proteus morganii 1518; in vitro) [µg/mL] | MIC Pseu. 799 ([2]; in vitro, agar dilution, DST agar) [µg/mL] | MIC Salm. 277 [3] [µg/mL] | MIC Prot. 2359 (Proteus morganii 2359; in vitro) [µg/mL] | MIC Staph. 2999 ([4]; in vitro) [µg/mL] | MIC Staph. 10B [5] [µg/mL] | MIC Esch. 2018 (Escherichia coli 2018; in vitro) [µg/mL] | MIC Myc. tub. [6] [µg/mL]
1 | 3-Thiomorpholinylmethylenamino-Rifamycin S [Verbindung 87] | wirksam hemmen | deutliche Hemmwirkung |  |  |  |  |  |  |  |  |  |  |  |  |  |  |  |  |  | 
2 | CO[C@H]1/C=C/O[C@@]2(C)Oc3c(C)c(O)c4c(O)c(c5nc(N6CCN(Cc7ccccc7)CC6)[nH]c5c4c3C2=O)NC(=O)/C(C)=C\C=C\[C@H](C)[C@H](O)[C@@H](C)[C@@H](O)[C@@H](C)[C@H](OC(C)=O)[C@@H]1C [Verbindung 57, 4-(4-Benzylpiperazinyl)-imidazolo[4,5-c]rifamycin SV] |  |  | 8 (≈ 8.93 µM) | 4 (≈ 4.46 µM) | 16 (≈ 17.9 µM) | 16 (≈ 17.9 µM) | 4 (≈ 4.46 µM) | 0.005 (≈ 0.00558 µM) | 0.005 (≈ 0.00558 µM) | 4 (≈ 4.46 µM) | 0.97 (≈ 1.08 µM) |  |  |  |  |  |  |  |  | 
3 | COC1C=COC2(C)Oc3c(C)c(O)c4c(O)c(c5nc(N6CCN(CC7CCCCC7)CC6)[nH]c5c4c3C2=O)NC(=O)C(C)=CC=CC(C)C(O)C(C)C(O)C(C)C(OC(C)=O)C1C (stereo not drawn) [Verbindung 5, 4-(4-Cyclohexylmethyl-piperazinyl)-imidazolo[4,5-c]rifamycin SV] |  |  | 4 (≈ 4.43 µM) | 8 (≈ 8.87 µM) | 16 (≈ 17.7 µM) | 8 (≈ 8.87 µM) | 16 (≈ 17.7 µM) | 0.005 (≈ 0.00554 µM) | 0.005 (≈ 0.00554 µM) | 4 (≈ 4.43 µM) | 1.9 (≈ 2.11 µM) |  |  |  |  |  |  |  |  | 
4 | 4-[8-Aza-1,4-dioxaspiro-(4,5)-8-decyl]-imidazolo[4,5-c]-rifamycin SV [Verbindung 25] |  |  |  |  |  |  |  |  |  |  |  | 8 | 8 | 16 | 16 | 8 | 0.005 | 0.005 | 16 | 0.97
5 | 3-Indolinylmethylenamino-Rifamycin S [Verbindung 82] | wirksam hemmen | deutliche Hemmwirkung |  |  |  |  |  |  |  |  |  |  |  |  |  |  |  |  |  | 
6 | COC1C=COC2(C)Oc3c(C)c(O)c4c(O)c(c5nc(N6CCOCC6)[nH]c5c4c3C2=O)NC(=O)C(C)=CC=CC(C)C(O)C(C)C(O)C(C)C(OC(C)=O)C1C (stereo not drawn) [Verbindung 2, 4-Morpholino-imidazolo[4,5-c]rifamycin SV] | wirksam hemmen | deutliche Hemmwirkung | 16 (≈ 19.8 µM) | 4 (≈ 4.96 µM) | 8 (≈ 9.91 µM) | 32 (≈ 39.7 µM) | 4 (≈ 4.96 µM) | 0.005 (≈ 0.0062 µM) | 0.01 (≈ 0.0124 µM) | 16 (≈ 19.8 µM) | 1.9 (≈ 2.35 µM) |  |  |  |  |  |  |  |  | 
7 | CO[C@H]1/C=C/O[C@@]2(C)Oc3c(C)c(O)c4c(O)c(c5nc(N6CCN(CC7CC7)CC6)[nH]c5c4c3C2=O)NC(=O)/C(C)=C\C=C\[C@H](C)[C@H](O)[C@@H](C)[C@@H](O)[C@@H](C)[C@H](OC(C)=O)[C@@H]1C [Verbindung 54, 4-(4-Cyclopropylmethylpiperazinyl)-imidazolo[4,5-c]rifamycin SV] |  |  | 8 (≈ 9.3 µM) | 8 (≈ 9.3 µM) | 16 (≈ 18.6 µM) | 32 (≈ 37.2 µM) | 8 (≈ 9.3 µM) | 0.005 (≈ 0.00581 µM) | 0.005 (≈ 0.00581 µM) | 8 (≈ 9.3 µM) |  |  |  |  |  |  |  |  |  | 
8 | CO[C@H]1/C=C/O[C@@]2(C)Oc3c(C)c(O)c4c(O)c(c5[nH]c(N6CCC(N(C)C)CC6)nc5c4c3C2=O)NC(=O)/C(C)=C\C=C\[C@H](C)[C@H](O)[C@@H](C)[C@@H](O)[C@@H](C)[C@H](OC(C)=O)[C@@H]1C [Verbindung 23, 4-(4-Dimethylamino-l-piperidyl)-imidazolo[4,5-c]rifamycin SV] |  |  | 16 (≈ 18.9 µM) | 16 (≈ 18.9 µM) | 16 (≈ 18.9 µM) | 16 (≈ 18.9 µM) | 16 (≈ 18.9 µM) | 0.1 (≈ 0.118 µM) | 0.1 (≈ 0.118 µM) | 8 (≈ 9.43 µM) |  |  |  |  |  |  |  |  |  | 
9 | CO[C@H]1/C=C/O[C@@]2(C)Oc3c(C)c(O)c4c(O)c(c5nc(N6CCN(C7CCCC7)CC6)[nH]c5c4c3C2=O)NC(=O)/C(C)=C\C=C\[C@H](C)[C@H](O)[C@@H](C)[C@@H](O)[C@@H](C)[C@H](OC(C)=O)[C@@H]1C [Verbindung 50, 4-(4-Cyclopentylpiperazinyl)-imidazolo[4,5-c]rifamycin SV] |  |  | 8 (≈ 9.15 µM) | 8 (≈ 9.15 µM) | 8 (≈ 9.15 µM) | 32 (≈ 36.6 µM) | 8 (≈ 9.15 µM) | 0.01 (≈ 0.0114 µM) | 0.01 (≈ 0.0114 µM) | 8 (≈ 9.15 µM) |  |  |  |  |  |  |  |  |  | 
